The results in this text go back to US12016918B2, “Peptide-containing adjuvant compounds having peg spacers” (UNIVERSITEIT LEIDEN, priority 2017, dated 2024).

Non-standard residues stand in square brackets, D forms with d. *: point of attachment. O(CH2CH2O)3CH2C(O) = O=C(COCCOCCOCCO)*; AEEEA = NCCOCCOCCOCC(=O)O; Carbamoyl = NC(=O)*; Cy5 = Cy5 label

Holding throughout (type): cell-based
For one assay, the target named is T1, human TLR2 (Homo sapiens, UniProt O60603).
T1 construct: host or cells: HEK293
Put plainly: HEK293-TLR2 activation assay (IL-8 production). As to conditions: for activation of TLR2 HEK cells (human IL-8 production via TLR-2): HEK TLR-2 cells incubated with titrated amounts of compound, IL-8 in supernatant by ELISA, FIG. 2A/3A; for TLR2-mediated bio-activity compared to reference ligands: compared to compound 1 and 5 and chirally pure Pam3CSK4 (Pam-R), HEK TLR2 cells and human DC, FIG. 2. Here is the method:
(a) HEK TLR-2 cells were incubated with titrated amounts of test compounds or controls for 24 h;
The HEK-TLR2 reporter cell line and HEK293 cells stably transfected with human TLR2 were obtained from Invivogen, Toulouse, France. HEK-TLR2 cells were cultured in complete IMDM medium, supplemented with 500 μg/mL Geneticin. Test compounds were titrated in a flat-bottom 96-well plate (Corning, Amsterdam, The Netherlands) in complete IMDM medium to which 20 000 HEK-TLR2 cells per well were added. After 48 h of incubation at 37° C., the supernatant was taken from the wells for ELISA analysis (BioLegend, San Diego, CA) to determine the amount of IL-8 that was produced as a measure for TLR2-mediated activation.

For assay [1], the system named is human monocyte-derived dendritic cells. Put plainly: Activation of human dendritic cells (IL-12 cytokine secretion by ELISA). As to conditions: human DCs stimulated with titrated amounts of compound; IL-12 by ELISA; FIG. 2B/3B. From the text: One representative from three independent experiments is shown (error bars represent SD);
DCs were stimulated with titrated amounts of test compounds or controls. Supernatants were harvested and analyzed for IL-12 cytokine secretion by ELISA as in FIG. 2B;
(In general: In an ELISA, binding on a coated surface is turned into a signal by an enzyme label.)

Another assay concerns human moDC. Kind of assay: Uptake by human moDC (confocal laser scanning microscopy). As to conditions: 1 μM, 15 min incubation; Cy5-labeled conjugate; endo-lysosomal compartments; FIG. 4A. On the procedure: The cells were incubated for 15 min with compound 10 (1 μM). The uptake and localization of the compounds were analyzed with confocal laser scanning microscopy. The images are representative for multiple cells in at least 3 experiments; and […]

The test system of another assay is mouse D1-cells. Kind of assay: Uptake by mouse D1-cells (confocal laser scanning microscopy). As to conditions: 1 μM, 15 min incubation; Cy5-labeled conjugate; endo-lysosomal compartments; FIG. 4B. On the procedure:
The cells were incubated for 15 min with compound 10 (1 μM). The uptake and localization of the compounds were analyzed with confocal laser scanning microscopy. The images are representative for multiple cells in at least 3 experiments.

T1 sequence (O60603 21-784): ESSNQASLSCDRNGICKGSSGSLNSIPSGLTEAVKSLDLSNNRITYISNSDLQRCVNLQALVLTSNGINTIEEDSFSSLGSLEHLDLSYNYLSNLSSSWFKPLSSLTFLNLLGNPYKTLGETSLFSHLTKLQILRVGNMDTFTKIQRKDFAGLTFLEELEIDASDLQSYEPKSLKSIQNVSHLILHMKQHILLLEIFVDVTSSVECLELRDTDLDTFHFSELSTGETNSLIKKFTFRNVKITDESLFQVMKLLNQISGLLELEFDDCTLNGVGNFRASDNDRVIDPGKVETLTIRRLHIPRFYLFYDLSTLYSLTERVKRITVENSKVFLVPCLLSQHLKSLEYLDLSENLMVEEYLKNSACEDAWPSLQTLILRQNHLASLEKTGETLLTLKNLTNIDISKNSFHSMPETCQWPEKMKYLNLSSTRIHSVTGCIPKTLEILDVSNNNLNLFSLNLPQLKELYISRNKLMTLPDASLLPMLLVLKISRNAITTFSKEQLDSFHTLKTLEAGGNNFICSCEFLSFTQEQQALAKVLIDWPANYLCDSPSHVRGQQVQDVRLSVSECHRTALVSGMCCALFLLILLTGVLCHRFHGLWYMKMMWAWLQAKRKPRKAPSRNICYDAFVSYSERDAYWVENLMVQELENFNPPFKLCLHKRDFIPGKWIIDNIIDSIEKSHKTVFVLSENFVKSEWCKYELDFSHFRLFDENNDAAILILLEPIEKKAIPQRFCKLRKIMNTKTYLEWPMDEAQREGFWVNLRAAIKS

Regarding `CCCCCCCCCCCCCCCC(=O)OCCSCC[C@H](NC(N)=O)C(=O)N[C@@H](CO)C(=O)OCCOCCOCCOCC(=O)O` [Compound 6, (14S,17S)-14-(hydroxymethyl)-13,16,24-trioxo-17-ureido-3,6,9,12,23-pentaoxa-20-thia-15-azanonatriacontanoic acid], on human TLR2, the “activation of TLR2 HEK cells (human IL-8 production via TLR-2)” value (shortened to “activation of TLR2 HEK cells”) is given as “excellent capacity to activate” and the “TLR2-mediated bio-activity compared to reference ligands” value is reported as “improved”. Besides, in assay [1], the “activation of human monocyte-derived dendritic cells (IL-12 secretion)” value (“activation … (IL-12 secretion)” for short) is reported as “excellent capacity to activate”.
Consider `CCCCCCCCCCCCCCCC(=O)OCCSCC[C@H](NC(N)=O)C(=O)N[C@@H](CO)C(=O)NCCOCCOCCOCC(=O)O` [Compound 7, (14S,17 S)-14-(hydroxymethyl)-13,16,24-trioxo-17-ureido-3,6,9,23-tetraoxa-20-thia-12,15-diazanonatriacontanoic acid], for which, on human TLR2, the “activation of TLR2 HEK cells” value is “excellent capacity to activate” and the “TLR2-mediated bio-activity compared to reference ligands” value was “improved”. The “activation … (IL-12 secretion)” value in assay [1] was “excellent capacity to activate”.
As to “NH2C(O)NH-Cys(EtOC(O)C15H31)-Ser(OH)—NH(CH2CH2O)3CH2C(O)NH-DEVSGLEQLESIINFEK(^Cy5)L-OH ({Carbamoyl-Cys(EtOC(O)C15H31)}-S[AEEEA]DEVSGLEQLESIINFEK(Cy5)L-OH) [Compound 11, Cy5 fluorophore-labeled conjugate from 28]”, the “activation of TLR2 HEK cells” value with human TLR2 is recorded as “intact bio-activity”. The “activation … (IL-12 secretion)” value in assay [1] is “intact bio-activity”.
Take “NH2C(O)NH-Cys(EtOC(O)C15H31)-Ser(OH)—NH(CH2CH2O)3CH2C(O)NH-DEVSGLEQLESIINFEKL-OH ({Carbamoyl-Cys(EtOC(O)C15H31)}-S[AEEEA]DEVSGLEQLESIINFEKL-OH) [Compound 9]”: in the assay with human TLR2, the “activation of TLR2 HEK cells” value is reported as “intact bio-activity”. The “activation … (IL-12 secretion)” value in assay [1] is reported as “intact bio-activity”.
On to “NH2C(O)NH-Cys(EtOC(O)C15H31)-Ser(OH)—O(CH2CH2O)3CH2C(O)NH-DEVSGLEQLESIINFEK(^Cy5)L-OH ({Carbamoyl-Cys(EtOC(O)C15H31)-Ser-O(CH2CH2O)3CH2C(O)}-DEVSGLEQLESIINFEK(Cy5)L-OH) [Compound 10, Cy5 fluorophore-labeled conjugate from 27]”, for which the “dendritic cell uptake, human” value in the assay on human moDC is given as “efficient engulfment”. In the assay on mouse D1-cells, the “dendritic cell uptake, murine” value is “efficient engulfment”. Further, the “activation of TLR2 HEK cells” value with human TLR2 is reported as “intact bio-activity”. Also, the “activation … (IL-12 secretion)” value in assay [1] is “intact bio-activity”.
Take “NH2C(O)NH-Cys(EtOC(O)C15H31)-Ser(OH)—O(CH2CH2O)3CH2C(O)NH-DEVSGLEQLESIINFEKL-OH ({Carbamoyl-Cys(EtOC(O)C15H31)-Ser-O(CH2CH2O)3CH2C(O)}-DEVSGLEQLESIINFEKL-OH) [Compound 8]”: in the assay with human TLR2, the “activation of TLR2 HEK cells” value was “intact bio-activity”. The “activation … (IL-12 secretion)” value in assay [1] is “intact bio-activity”.
